Experiments:
[1] = tested on: sAPPβ release, SH-SY5Y cells; assay: sAPPβ release assay; type: cell-based; conditions: Homo sapiens, compounds incubated 17 h
Protocol: SH-SY5Y cells were cultured in DMEM/F-12 with Glutamax, 10% FCS and 1% non-essential amino acids and cryopreserved and stored at −140° C. at a concentration of 7.5−9.5×10^6 cells per vial. Thaw cells and seed at a conc. of around 10000 cells/well in DMEM/F-12 with Glutamax, 10% FCS and 1% non-essential amino acids to a 384-well tissue culture treated plate, […] cell susp/well. The cell plates were then incubated for 7-24 h at 37° C., 5% CO2. The cell medium was removed, followed by addition of 30 μL compound diluted in DMEM/F-12 with Glutamax, 10% FCS, 1% non-essential amino acids and 1% PeSt to a final conc. of 1% DMSO. The compounds were incubated with the cells for 17 h (overnight) at 37° C., 5% CO2. Meso Scale Discovery (MSD) plates were used for the detection of sAPPβ release. MSD sAPPβ plates were blocked in 1% BSA in Tris wash buffer (40 μL/well) for 1 h on shake at r.t. and washed 1 time in Tris wash buffer (40 μL/well). 20 μL of medium was transferred to the pre-blocked and washed is MSD sAPPβ microplates, and the cell plates were further used in an ATP assay to measure cytotoxicity. The MSD plates were incubated with shaking at r.t. for 2 h and the media discarded. 10 μL detection antibody was added (1 nM) per well followed by incubation with shaking at r.t. for 2 h and then discarded. 40 μL Read Buffer was added per well and the plates were read in a SECTOR Imager.

[2] = target: T1, human β-Secretase (AA 1-AA 460), sBACE-Fc (Homo sapiens, UniProt P56817); assay: Diluted TR-FRET assay; type: biochemical; conditions: footnote a: diluted FRET assay, 50 times less enzyme, 6.5 h reaction time at r.t.; read-out: IC50 in TR-FRET assay (IC50 from the diluted FRET assay)
T1 construct: soluble part of the human β-Secretase (AA 1-AA 460) was cloned; Fc domain of IgG1; made in house
T1 sequence (P56817 22-460): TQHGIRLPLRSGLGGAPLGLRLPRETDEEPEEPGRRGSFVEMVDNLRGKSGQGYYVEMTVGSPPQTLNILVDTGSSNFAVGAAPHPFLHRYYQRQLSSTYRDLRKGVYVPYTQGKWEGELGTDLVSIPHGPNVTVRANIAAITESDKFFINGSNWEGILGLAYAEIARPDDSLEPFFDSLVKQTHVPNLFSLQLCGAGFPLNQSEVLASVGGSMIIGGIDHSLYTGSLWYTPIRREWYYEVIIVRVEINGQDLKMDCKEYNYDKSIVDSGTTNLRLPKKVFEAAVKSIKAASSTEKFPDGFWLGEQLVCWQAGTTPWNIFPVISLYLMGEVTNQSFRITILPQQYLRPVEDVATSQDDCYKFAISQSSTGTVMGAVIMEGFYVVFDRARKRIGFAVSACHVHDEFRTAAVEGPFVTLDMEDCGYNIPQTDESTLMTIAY
Protocol: (§1) The cDNA for the soluble part of the human β-Secretase (AA 1-AA 460) was cloned using the ASP2-Fc10-1-IRES-GFP-neoK mammalian expression vector. The gene was fused to the Fc domain of IgG1 (affinity tag) and stably cloned into HEK 293 cells.
The robotic systems Biomek FX and Velocity 11 were used for all liquid handling and the enzyme and substrate solutions were kept on ice until they were placed in the robotic system. Enzyme (9 μA) was added to the plate then 1 μA of compound in dimethylsulphoxide was added, mixed and pre-incubated for 10 minutes. Substrate (10 μA) was then added, mixed and the reaction proceeded for 15 minutes at r.t. The reaction was stopped with the addition of Stop solution (7 μl, NaAcetate, pH 9). […] The dimethylsulphoxide control, instead of test compound, defined the 100% activity level and 0% activity was defined by wells lacking enzyme (replaced with reaction buffer).

[3] = target: T1, human β-Secretase (AA 1-AA 460), sBACE-Fc; assay: TR-FRET assay; type: biochemical; conditions: enzyme 2.7 μg/ml, substrate 100 nM, pH4.5, 15 minutes at r.t.
Protocol: The β-secretase enzyme used in the TR-FRET is prepared as follows:
as §1
The enzyme (truncated form) was diluted to 6 μg/mL (stock 1.3 mg/mL) and the substrate (Europium)[…](Qsy7) to 200 nM (stock 120 μM) in reaction buffer (NaAcetate, is chaps, triton x-100, EDTA pH4.5). The robotic systems Biomek FX and Velocity 11 were used for all liquid handling and the enzyme and substrate solutions were kept on ice until they were placed in the robotic system. Enzyme (9 μA) was added to the plate then 1 μA of compound in dimethylsulphoxide was added, mixed and pre-incubated for 10 minutes. Substrate (10 μA) was then added, mixed and the reaction proceeded for 15 minutes at r.t. The reaction was stopped with the addition of Stop solution (7 μl, NaAcetate, pH 9). The fluorescence of the product was measured on a Victor II plate reader with an excitation wavelength of 340 nm and an emission wavelength of 615 nm. The assay was performed in a Costar 384 well round bottom, low volume, non-binding surface plate (Corning #3676). […] The dimethylsulphoxide control, instead of test compound, defined the 100% activity level and 0% activity was defined by wells lacking enzyme (replaced with reaction buffer).

Row | IC50 [1] [nM] | IC50 [2] [nM] | IC50 [3] [nM] | SMILES
1 | 0.7 | 4 |  | CC#Cc1cncc(-c2cc(C3(c4cc(C)c(=O)n(CC)c4)N=C(N)c4c(F)cccc43)ccn2)c1 (single isomer, unassigned) [Example 26, 5-(3-amino-4-fluoro-1-(5′-(prop-1-ynyl)-2,3′-bipyridin-4-yl)-1H-isoindol-1-yl)-1-ethyl-3-methylpyridin-2(1H)-one]
2 |  |  | 8350 | CC#Cc1cncc(-c2cc(C3(c4cc(C)c(=O)n(CC)c4)N=C(N)c4c(F)cccc43)ccn2)c1 (single isomer, unassigned) [Example 26a, 5-(3-amino-4-fluoro-1-(5′-(prop-1-ynyl)-2,3′-bipyridin-4-yl)-1H-isoindol-1-yl)-1-ethyl-3-methylpyridin-2(1H)-one]
3 | 2 | 6 |  | CC#Cc1cncc(-c2cccc([C@@]3(c4cc(C)c(=O)n(C)c4)N=C(N)c4c(F)cccc43)c2)c1 [Example 1, (R)-5-(3-Amino-4-fluoro-1-(3-(5-(prop-1-ynyl)pyridin-3-yl)phenyl)-1H-isoindol-1-yl)-1,3-dimethylpyridin-2(1H)-one]
4 | 2 |  | 57 | CC#Cc1cncc(-c2cc(C3(c4cc(C)c(=O)n(CC)c4)N=C(N)c4c(F)cccc43)ccn2)c1 (centres unmarked) [Example 2, 5-(3-Amino-4-fluoro-1-(5′-(prop-1-ynyl)-2,3′-bipyridin-4-yl)-1H-isoindol-1-yl)-1-ethyl-3-methylpyridin-2(1H)-one]
5 | 55 |  | 51 | CCn1cc([C@]2(c3cccc(-c4cncc(C)c4F)c3)N=C(N)c3c(F)cccc32)cc(C)c1=O [Example 4, (R)-5-(3-Amino-4-fluoro-1-(3-(4-fluoro-5-methylpyridin-3-yl)phenyl)-1H-isoindol-1-yl)-1-ethyl-3-methylpyridin-2(1H)-one]
6 | 10 |  | 58 | Cc1cc(C2(c3cccc(-c4cncc(C#N)c4)c3)N=C(N)c3c(F)cccc32)cn(C(C)C)c1=O (centres unmarked) [Example 5, 5-(3-(3-Amino-4-fluoro-1-(1-isopropyl-5-methyl-6-oxo-1,6-dihydropyridin-3-yl)-1H-isoindol-1-yl)phenyl)nicotinonitrile]
7 | 9 | 16 |  | CCn1cc(C2(c3cccc(-c4cncnc4)c3)N=C(N)c3c(F)cccc32)cc(C)c1=O (centres unmarked) [Example 6, 5-(3-Amino-4-fluoro-1-(3-(pyrimidin-5-yl)phenyl)-1H-isoindol-1-yl)-1-ethyl-3-methylpyridin-2(1H)-one]
8 | 4 |  | 38 | Cc1cc(C2(c3cccc(-c4cncc(F)c4)c3)N=C(N)c3c(F)cccc32)cn(C(C)C)c1=O (centres unmarked) [Example 7, 5-(3-Amino-4-fluoro-1-(3-(5-fluoropyridin-3-yl)phenyl)-1H-isoindol-1-yl)-1-isopropyl-3-methylpyridin-2(1H)-one]
9 | 20 |  | 89 | Cn1cc(C2(c3cccc(-c4cncc(C#N)c4)c3)N=C(N)c3c(F)cccc32)cc(C(F)(F)F)c1=O (centres unmarked) [Example 10, 5-(3-(3-Amino-4-fluoro-1-(1-methyl-6-oxo-5-(trifluoromethyl)-1,6-dihydropyridin-3-yl)-1H-isoindol-1-yl)phenyl)nicotinonitrile]
10 | 46 |  | 54 | COc1cncc(-c2cccc(C3(c4cc(C(F)(F)F)c(=O)n(C)c4)N=C(N)c4c(F)cccc43)c2)c1 (centres unmarked) [Example 11, 5-(3-Amino-4-fluoro-1-(3-(5-methoxypyridin-3-yl)phenyl)-1H-isoindol-1-yl)-1-methyl-3-(trifluoromethyl)pyridin-2(1H)-one]
11 | 8 |  | 62 | Cn1cc(C2(c3cccc(-c4cncc(F)c4)c3)N=C(N)c3c(F)cccc32)cc(C(F)(F)F)c1=O (centres unmarked) [Example 12, 5-(3-Amino-4-fluoro-1-(3-(5-fluoropyridin-3-yl)phenyl)-1H-isoindol-1-yl)-1-methyl-3-(trifluoromethyl)pyridin-2(1H)-one]
12 | 24 |  | 81 | Cn1cc(C2(c3cccc(-c4cncnc4)c3)N=C(N)c3c(F)cccc32)cc(C(F)(F)F)c1=O (centres unmarked) [Example 13, 5-(3-Amino-4-fluoro-1-(3-(pyrimidin-5-yl)phenyl)-1H-isoindol-1-yl)-1-methyl-3-(trifluoromethyl)pyridin-2(1H)-one]
13 | 11 |  | 58 | Cc1cc(C2(c3cccc(-c4cncnc4)c3)N=C(N)c3c(F)cccc32)cn(C)c1=O (centres unmarked) [Example 14, 5-(3-Amino-4-fluoro-1-(3-(pyrimidin-5-yl)phenyl)-1H-isoindol-1-yl)-1,3-dimethylpyridin-2(1H)-one]
14 | 14 |  | 104 | Cc1cc(C2(c3ccnc(-c4cncc(Cl)c4)c3)N=C(N)c3c(F)cccc32)cn(C)c1=O (centres unmarked) [Example 15, 5-(3-Amino-1-(5′-chloro-2,3′-bipyridin-4-yl)-4-fluoro-1H-isoindol-1-yl)-1,3-dimethylpyridin-2(1H)-one]
15 | 1 |  | 59 | CC#Cc1cncc(-c2cc(C3(c4cc(CC)c(=O)n(CC)c4)N=C(N)c4c(F)cccc43)ccn2)c1 (centres unmarked) [Example 16, 5-(3-Amino-4-fluoro-1-(5′-(prop-1-ynyl)-2,3′-bipyridin-4-yl)-1H-isoindol-1-yl)-1,3-diethylpyridin-2(1H)-one]
16 | 17 |  | 66 | Cc1cc(C2(c3cccc(-c4cncc(C#N)c4)c3)N=C(N)c3c(F)cccc32)cn(C)c1=O (centres unmarked) [Example 17, 5-(3-(3-Amino-1-(1,5-dimethyl-6-oxo-1,6-dihydropyridin-3-yl)-4-fluoro-1H-isoindol-1-yl)phenyl)nicotinonitrile]
17 | 8 |  | 26 | Cc1cc(C2(c3cccc(-c4cncc(Cl)c4)c3)N=C(N)c3c(F)cccc32)cn(C)c1=O (centres unmarked) [Example 18, 5-(3-Amino-1-(3-(5-chloropyridin-3-yl)phenyl)-4-fluoro-1H-isoindol-1-yl)-1,3-dimethylpyridin-2(1H)-one]
18 | 3 |  | 61 | Cc1cc(C2(c3cccc(-c4cncc(F)c4)c3)N=C(N)c3c(F)cccc32)cn(C)c1=O (centres unmarked) [Example 19, 5-(3-Amino-4-fluoro-1-(3-(5-fluoropyridin-3-yl)phenyl)-1H-isoindol-1-yl)-1,3-dimethylpyridin-2(1H)-one]
19 | 6 |  | 31 | COc1cncc(-c2cccc(C3(c4cc(C)c(=O)n(C)c4)N=C(N)c4c(F)cccc43)c2)c1 (centres unmarked) [Example 20, 5-(3-amino-4-fluoro-1-(3-(5-methoxypyridin-3-yl)phenyl)-1H-isoindol-1-yl)-1,3-dimethylpyridin-2(1H)-one]
20 | 9 |  | 70 | CCn1cc(C2(c3cccc(-c4cncc(F)c4)c3)N=C(N)c3c(F)cccc32)cc(C(F)F)c1=O (centres unmarked) [Example 22, 5-(3-Amino-4-fluoro-1-(3-(5-fluoropyridin-3-yl)phenyl)-1H-isoindol-1-yl)-3-(difluoromethyl)-1-ethylpyridin-2(1H)-one]
21 | 22 |  | 140 | CC#Cc1cccc(-c2cccc([C@@]3(c4cc(C)c(=O)n(CC)c4)N=C(N)c4c(F)cccc43)c2)n1 [Example 24, (R)-5-(3-Amino-4-fluoro-1-(3-(6-(prop-1-ynyl)pyridin-2-yl)phenyl)-1H-isoindol-1-yl)-1-ethyl-3-methylpyridin-2(1H)-one]
